Measured values reported in publication PMC12426922, “Fingerprinting the Intestinal Transport of Low-Molecular-Mass Advanced Glycation End-Products (AGEs) Using a Caco‑2 Transwell Model” (Journal of Agricultural and Food Chemistry, 2025).
Where two headings read alike, the source gives them in different places. Marks after values point to notes of the source that are not given here.

Tests used:
[1] = tested on: Caco-2 cell monolayer; assay: Accumulation of AGEs in the Caco-2 cell monolayer after transport experiment; type: in vitro ADME, Human; conditions: mixture, each AGE 100 μmol/L, 2 h; for percentage of the amount added at the apical side at t = 0: accumulation (intracellular): standard treatment
Procedure: After the transport experiment, the cell monolayer on the inset membrane was washed three times with HBSS and three times with PBS. […] The samples were subsequently centrifuged at 16 000g for 20 min at 4 °C, and the supernatant was collected for further analysis by LC-MS.
The analytical column was maintained at 40 °C throughout the quantification process. A multistep binary gradient system of water containing 0.1% (v/v) formic acid (solvent A) and acetonitrile containing 0.1% (v/v) formic acid (solvent B) was used. In the whole gradient program, the total proportion of solvents A and B is always equal to 100%. […] The initial flow rate was set to 0.30 mL/min. Subsequently, it was reduced to 0.25 mL/min at 0.3 min, which was kept until 10 min. Afterward, there was a gradual decrease, reaching 0.15 mL/min at 11 min, and this rate was maintained until 12 min. […] Between 1 and 11 min of gradient running, the line was set to MS, and for the other time periods, the line was set to waste. The retention time and mass spectrometry parameters of individual AGEs are listed in Table S1 and the chromatograms of the samples are shown in Figure S1.

[2] = tested on: differentiated Caco-2 cells; assay: WST-1 cytotoxicity assay, viability of differentiated Caco-2 cells after 2 h exposure; type: cell-based, Human; conditions: for concentration that did not significantly affect cell viability: for the mixture: concentration of each AGE
Procedure: (§1) Human colon carcinoma cells (Caco-2 cells) were obtained from the American Type Culture Collection (ATCC, Rockville, MD, USA). Caco-2 cells were cultured in complete culture medium, composed of DMEM GlutaMAX with 10% FBS (v/v), 1% P/S (v/v), and 1% NEAA (v/v) at 37 °C in a 5% (v/v) CO2 incubator. In this study, Caco-2 cells within passages 10–15 were utilized.
The WST-1 assay was used to quantify the viability of differentiated Caco-2 cells upon exposure to the individual AGEs and their equimolar mixture. To this end, Caco-2 cells were seeded in 96-well plates at 3 × 10^4 cells/well (100 μL) and incubated at 37 °C under 5% (v/v) CO2 for 20 days. The complete culture medium was refreshed on each alternate day. After full differentiation, the culture medium was removed, and the cells were washed with HBSS (containing 1% (v/v) HEPES) twice on the testing day. The same volume (100 μL) of HBSS containing a series of concentrations of the different individual test compounds or of a mixture containing all 10 AGEs was added from a 20-times-concentrated stock solution in HBSS. The test concentrations were designed based on the estimated daily intake of total AGEs (0.55–0.66 mg/(kg·day)) and high-exposure scenarios (1.4–1.8 mg/(kg day)). […] After exposure for 2 h, the absorbance at 440 and 620 nm was measured in a plate spectrophotometer (Molecular Devices, San Jose, CA, USA, Spectra Max M2). After measurement, the cell viability was calculated as cell viability (%)=(Atested 440 nm−Atested 620 nm)/(Acontrol 440 nm−Acontrol 620 nm)×100

[3] = Transport of AGE mixture across Caco-2 cell layer (transwell, apical to basolateral); type: in vitro ADME, Human; conditions: human; for recovery at 2 h, 100 μmol/L: read-out: percentage of the amount added at the apical side at t = 0: recovery; for Papp at 120 min, 100 μmol/L: data from 120 min
Procedure: as §1
(§2) Caco-2 cells were cultured until reaching 50%–60% confluence (undifferentiated Caco-2 cells), followed by trypsinization. Then, cells were seeded at 3 × 10^4 cells per insert in 100 μL of complete culture medium into the transwell inserts of a 24-well transwell plate, and 600 μL of complete culture medium was added to the basolateral compartments. In both the apical and basolateral compartments, the medium was renewed every other day. After 2 weeks, the transepithelial electrical resistance (TEER) value was measured using a Millicell ERS-2 Electrical Resistance System (Burlington, MA, USA) every other day. Only wells with a TEER value of >400 Ω/cm^2 were used for transport experiments. Moreover, the TEER value was measured before and after the transport experiment to ascertain that the Caco-2 cell layer remained intact during the whole transport experiment.
(§3) Transport experiments were performed after 20 days of differentiation of the Caco-2 cells. The culture medium was replaced with HBSS (containing 1% (v/v) HEPES) 30 min prior to testing in both the apical and basolateral compartments. After the 30 min preincubation, 100 μL of HBSS containing a mixture of the 10 different AGEs including CML, CEL, GALA, argpyrimidine, MG-H1, GOLD, GOLA, MOLD, pentosidine, and pyrraline, each at 100 μmol/L, was added to the apical compartment after removing the preincubation medium, while the basolateral medium was replaced by 600 μL of HBSS. […] At 120 min, a 10 μL sample from the apical side was taken for calculating apical side retention (nontransported percentage).
(§4) The apparent permeability coefficient (Papp) value was calculated according to the methodology described by Yee.
(§5) AGEs were quantified by LC-MS using a Shimadzu Nexera XR LC-40D XR UPLC system (Kyoto, Japan) equipped with a UPLC Amide column (100 mm × 2.1 mm, 1.7 μm) without derivatization coupled with a Shimadzu LCMS-8045 triple quadrupole mass spectrometer (Kyoto, Japan). The analytical column was maintained at 40 °C throughout the quantification process. A multistep binary gradient system of water containing 0.1% (v/v) formic acid (solvent A) and acetonitrile containing 0.1% (v/v) formic acid (solvent B) was used. In the whole gradient program, the total proportion of solvents A and B is always equal to 100%. The gradient program was designed as follows: 75% solvent B to 12.5% solvent B from 0 to 10 min, followed by 12.5% solvent B from 10 to 11 min. […] The initial flow rate was set to 0.30 mL/min. Subsequently, it was reduced to 0.25 mL/min at 0.3 min, which was kept until 10 min. Afterward, there was a gradual decrease, reaching 0.15 mL/min at 11 min, and this rate was maintained until 12 min. […] Between 1 and 11 min of gradient running, the line was set to MS, and for the other time periods, the line was set to waste. The retention time and mass spectrometry parameters of individual AGEs are listed in Table S1 and the chromatograms of the samples are shown in Figure S1.

[4] = tested on: Caco-2 cell layer; assay: as above; type: in vitro ADME, Human; conditions: mixture, each AGE 100 μmol/L, 2 h; for percentage of the amount added at the apical side at t = 0: apical side (nontransported) / percentage of the amount added at the apical side at t = 0: basolateral side (transported): standard treatment
Procedure: as §1, §2, §3, §4, §5

[5] = tested on: PepT1; assay: as above; type: in vitro ADME, Human; conditions: human, mixture, each AGE 100 μmol/L; for recovery at 2 h, 100 μmol/L: Caco-2, with Gly-Sar 10 mmol/L (apical compartment), Gly-Sar 10 mmol/L, read-out: percentage of the amount added at the apical side at t = 0: recovery; for Papp at 120 min, 100 μmol/L: Caco-2, with Gly-Sar 10 mmol/L (apical), 10 mmol/L Gly-Sar apical (PepT1 inhibition), data from 120 min
Procedure: as §1, §2, §3, §4, §5

[6] = Caco-2, 4 °C, mixture, each AGE 100 μmol/L
[7] = Caco-2, cytochalasin D pretreatment, mixture, each AGE 100 μmol/L
[8] = Caco-2, standard treatment (37 °C), equimolar mixture of 10 AGEs, each 100 μmol/L apical
[9] = Caco-2, standard treatment, mixture, each AGE 100 μmol/L
[10] = Caco-2, cytochalasin D 1 μg/mL, 30 min apical preincubation, mixture, each AGE 100 μmol/L

SMILES | percentage of the amount added at the apical side at t = 0: accumulation ([1]; 4 °C) | percentage of the amount added at the apical side at t = 0: accumulation ([1]; Gly-Sar 10 mmol/L) | percentage of the amount added at the apical side at t = 0: accumulation ([1]; cytochalasin D pretreatment) | concentration that did not significantly affect cell viability [2] [µmol/L] | recovery at 2 h, 100 μmol/L [3, 6] [%] | Papp at 120 min, 100 μmol/L [3, 6] [×10⁻⁶ cm/s] | recovery at 2 h, 100 μmol/L [3, 7] [%] | Papp at 120 min, 100 μmol/L [3, 8] [×10⁻⁶ cm/s] | recovery at 2 h, 100 μmol/L [3, 9] [%] | Papp at 120 min, 100 μmol/L [3, 10] [×10⁻⁶ cm/s] | percentage of the amount added at the apical side at t = 0: apical side ([4]; 4 °C) | percentage of the amount added at the apical side at t = 0: basolateral side ([4]; 4 °C) | percentage of the amount added at the apical side at t = 0: apical side ([4]; Gly-Sar 10 mmol/L) | percentage of the amount added at the apical side at t = 0: basolateral side ([4]; Gly-Sar 10 mmol/L) | percentage of the amount added at the apical side at t = 0: apical side ([4]; cytochalasin D pretreatment) | percentage of the amount added at the apical side at t = 0: basolateral side ([4]; cytochalasin D pretreatment) | percentage of the amount added at the apical side at t = 0: apical side (nontransported) [4] | percentage of the amount added at the apical side at t = 0: basolateral side (transported) [4] | recovery at 2 h, 100 μmol/L [5] [%] | Papp at 120 min, 100 μmol/L [5] [×10⁻⁶ cm/s] | also measured
Cc1c[n+](CCCC[C@H](N)C(=O)O)cn1CCCC[C@H](N)C(=O)O [MOLD, methylglyoxal–lysine dimer] | 0.0 ± 0.0 ^a % | 0.0 ± 0.1 ^a % | 0.0 ± 0.1 ^a % | ≤ 1500 | 83.1 ± 6.5 | 0.057 | 91.7 ± 12.6 | 0.098 | 90.8 ± 7.9 | 0.34 | 83.0 ± 6.5 ^b % | 0.1 ± 0.1 ^b % | 93.5 ± 7.2 ^a % | 0.3 ± 0.2 ^b % | 90.8 ± 12.2 ^ab % | 0.8 ± 0.6 ^a % | 90.6 ± 7.7 ^ab % | 0.2 ± 0.2 ^b % | 93.8 ± 7.2 | 0.11 | 
Cc1nc(NCCC[C@H](N)C(=O)O)nc(C)c1O [argpyrimidine] | 0.0 ± 0.0 ^b % | 0.5 ± 0.2 ^a % | 0.5 ± 0.3 ^a % | ≤ 500 | 87.4 ± 5.4 | 0.099 | 94.7 ± 5.4 | 0.145 | 91.8 ± 5.9 | 0.395 | 87.1 ± 5.4 ^b % | 0.2 ± 0.1 ^b % | 93.8 ± 5.0 ^a % | 0.3 ± 0.1 ^b % | 93.3 ± 5.2 ^a % | 0.9 ± 0.6 ^a % | 91.2 ± 5.9 ^ab % |  | 94.6 ± 5.2 | 0.141 | percentage of the amount added at the apical side at t = 0: accumulation (intracellular) [1]: 0.2 ± 0.2 ^b %
N[C@@H](CCCCn1c(C=O)ccc1CO)C(=O)O [pyrraline] | 0.0 ± 0.0 ^b % | 0.1 ± 0.0 ^a % | 0.2 ± 0.1 ^a % |  | 87.1 ± 6.1 |  | 90.3 ± 4.9 | 0.1 | 89 ± 5.6 | 0.334 | 86.9 ± 6.0 ^a % | 0.1 ± 0.1 ^b % | 86.4 ± 2.8 ^a % | 0.2 ± 0.1 ^b % | 89.4 ± 4.7 ^a % | 0.8 ± 0.5 ^a % | 88.6 ± 5.5 ^a % | 0.2 ± 0.1 ^b % | 86.7 ± 2.8 | 0.08 | percentage of the amount added at the apical side at t = 0: accumulation (intracellular) [1]: 0.1 ± 0.1 ^a %; effect on cell viability [2]: did not affect cell viability up to the highest concentration tested
